Test results taken from patent publication US10307425B2, “Compositions and methods for treating toxoplasmosis, cryptosporidiosis and other apicomplexan protozoan related diseases” (UNIVERSITY OF WASHINGTON, priority 2015, dated 2019).
Converted amounts (≈) assume the structure as drawn. Like-named read-outs stand apart in the source and are kept apart here.

Columns and labels:
S. neurona merozoites = experiment: S. neurona growth assay (yellow fluorescent protein-expressing clone); conditions: Sarcocystis neurona, read-out: S. neurona EC50
SnCDPK1 = experiment: Recombinant SnCDPK1 inhibition; assay type: biochemical, Sarcocystis neurona
BbCDPK1 = BbCDPK1 (Besnoitia besnoiti, UniProt A0A290U7L2); experiment: BbCDPK1 inhibition; assay type: biochemical
BbCDPK1, sequence (A0A290U7L2 1-497): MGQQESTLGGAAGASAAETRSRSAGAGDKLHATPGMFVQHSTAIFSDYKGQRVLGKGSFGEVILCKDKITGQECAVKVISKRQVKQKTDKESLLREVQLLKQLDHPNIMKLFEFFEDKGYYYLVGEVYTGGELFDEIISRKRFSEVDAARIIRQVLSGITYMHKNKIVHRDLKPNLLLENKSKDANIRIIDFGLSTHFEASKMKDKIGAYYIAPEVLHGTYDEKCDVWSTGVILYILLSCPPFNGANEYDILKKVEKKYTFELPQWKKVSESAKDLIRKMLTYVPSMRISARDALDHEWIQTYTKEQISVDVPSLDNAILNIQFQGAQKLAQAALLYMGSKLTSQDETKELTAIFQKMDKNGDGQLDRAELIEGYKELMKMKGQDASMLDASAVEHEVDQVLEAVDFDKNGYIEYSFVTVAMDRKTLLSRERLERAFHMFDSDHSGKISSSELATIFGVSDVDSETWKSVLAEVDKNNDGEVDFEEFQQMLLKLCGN

N. caninum [1] = experiment: N. caninum in vitro cultures; assay type: cell-based, Neospora caninum
N. caninum [2] = experiment: Treatment of non-pregnant and pregnant Balb/c mice infected with N. caninum; assay type: in vivo, Neospora caninum
in vivo = conditions: BALB/c, mouse, po, 10 mg/kg
Besnoitia besnoiti = Besnoitia besnoiti in vitro activity; assay type: cell-based
[3] = pH 6.5
TgCDPK1 = TgCDPK1 (Toxoplasma gondii, UniProt Q9BJF5); experiment: biochemical
TgCDPK1, sequence (Q9BJF5 1-507): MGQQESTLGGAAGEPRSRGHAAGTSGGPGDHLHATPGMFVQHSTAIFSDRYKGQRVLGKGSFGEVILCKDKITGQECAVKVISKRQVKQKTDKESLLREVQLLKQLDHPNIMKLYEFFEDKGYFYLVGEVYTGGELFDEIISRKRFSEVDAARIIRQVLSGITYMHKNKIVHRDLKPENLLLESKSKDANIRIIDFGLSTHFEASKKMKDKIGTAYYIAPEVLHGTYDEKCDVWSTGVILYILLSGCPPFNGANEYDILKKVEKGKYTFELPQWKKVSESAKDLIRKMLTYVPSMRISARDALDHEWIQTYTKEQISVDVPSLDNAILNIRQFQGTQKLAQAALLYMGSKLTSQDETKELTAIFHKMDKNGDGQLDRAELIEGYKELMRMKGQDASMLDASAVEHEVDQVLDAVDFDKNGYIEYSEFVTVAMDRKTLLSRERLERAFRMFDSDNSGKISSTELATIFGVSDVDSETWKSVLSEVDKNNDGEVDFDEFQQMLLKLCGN

physchem = conditions: water, pH 6.5, aqueous buffer
[4] = Rat PK following IV and PO dosing; conditions: rats, PO vs IV

SMILES	EC50 (S. neurona merozoites) [nM]	IC50 (SnCDPK1) [nM]	Cmax (in vivo; female) [nM]	IC50 (TgCDPK1) [nM]	further results
Nc1ncnc2c1c(-c1ccc3nccnc3c1)nn2CC1CCNCC1	> 10000	> 2000	–	–	–
CCOc1ccc2cc(-c3nn(CC4CCN(C)CC4)c4ncnc(N)c34)ccc2c1 [Compound 150]	68	5.9	–	–	IC50 (BbCDPK1): 4 nM; activity against N. caninum in vitro (N. caninum [1]): effective in treating N. caninum in vitro; treatment of N. caninum infected mice (N. caninum [2]): treats infected mice and rids of N. caninum infection in brain and fetuses; Cmax (in vivo): 750 ± 150 nM; B. besnoiti EC100 (Besnoitia besnoiti): 2.580 µM; EC50 (Besnoitia besnoiti; Besnoitia besnoiti, read-out: B. besnoiti EC50): 45 nM
Nc1ncnc2c1c(-c1ccc3nc(OC4CC4)ccc3c1)nn2CC1CCOCC1 [Example 22, 3-(2-Cyclopropoxyquinolin-6-yl)-1-((tetrahydro-2H-pyran-4-yl)methyl)-1H-pyrazolo[3,4-d]pyrimidin-4-amine]	–	–	880 ± 230	–	Solubility [3]: 17 µM (≈ 7.08 µg/mL); Tmax (in vivo; female): 30 min
CC(C)(O)Cn1nc(-c2ccc3nc(OC4CC4)ccc3c2)c2c(N)ncnc21 [Example 25, 1-(4-Amino-3-(2-cyclopropoxyquinolin-6-yl)-1H-pyrazolo[3,4-d]pyrimidin-1-yl)-2-methylpropan-2-ol]	128	7.5	–	–	–
CC(C)(CO)Cn1nc(-c2ccc3cc(OC4CC4)ccc3c2)c2c(N)ncnc21 [Example 26, 3-(4-Amino-3-(6-cyclopropoxynaphthalen-2-yl)-1H-pyrazolo[3,4-d]pyrimidin-1-yl)-2,2-dimethylpropan-1-ol]	–	–	390 ± 160	–	Solubility [3]: 6.2 µM (≈ 2.5 µg/mL)
COc1ccc2cc(-c3nn(CC4CCOCC4)c4ncnc(N)c34)ccc2n1 [Example 27, 3-(2-methoxyquinolin-6-yl)-1-((tetrahydro-2H-pyran-4-yl)methyl)-1H-pyrazolo[3,4-d]pyrimidin-4-amine]	–	–	3900 ± 1100	21.2	Tmax (in vivo; female): 30 min; half-life (in vivo; female): 41 ± 21 min; Solubility (physchem): 8 µM (≈ 3.12 µg/mL)
CC(C)Cn1nc(-c2ccc3cc(OCC(C)(C)O)ccc3c2)c2c(N)ncnc21 [Example 33, 1-(6-(4-amino-1-isobutyl-1H-pyrazolo[3,4-d]pyrimidin-3-yl)naphthalen-2-yloxy)-2-methylpropan-2-ol]	–	–	–	5.7	bioavailability (in words) [4]: essentially complete bioavailability
CC(C)n1nc(-c2ccc3cc(OCC(C)(C)O)ccc3c2)c2c(N)ncnc21 [Example 117, 1-((6-(4-amino-1-isopropyl-1H-pyrazolo[3,4-d]pyrimidin-3-yl)naphthalen-2-yl)oxy)-2-methylpropan-2-ol]	–	–	–	3	–
CC(C)n1nc(-c2ccc3cc(OCCO)ccc3c2)c2c(N)ncnc21 [Example 118, 2-((6-(4-amino-1-isopropyl-1H-pyrazolo[3,4-d]pyrimidin-3-yl)naphthalen-2-yl)oxy)ethan-1-ol]	–	–	–	6.2	–
